Measurements as given in the supplement of paper PMC12463676, “Small-molecule dissolution of stress granules by redox modulation benefits ALS models” (Nature Chemical Biology, 2025).

What was measured:
potassium arsenate = compound: O=[As]([O-])(O)O.[K+] [potassium arsenate]; test: thermal stability z-score vs DMSO; higher = more thermally stabilized by treatment; conditions: HeLa; arsenate concentration 1 mM
Procedure: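 Cellular thermal proteome profiling in HeLa cells treated with 1 mM arsenate for 1 h (DMSO pretreatment), heated to ten temperatures (37-66.3 °C). Soluble protein was quantified by TMT mass spectrometry relative to DMSO controls; the thermal stability score was transformed to a z-score; mean of n = 3 experiments.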

lipoamide = compound: NC(=O)CCCCC1CCSS1 [lipoamide]; test: as above; conditions: HeLa, lipoamide concentration 100 µM
Procedure: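 Cellular thermal proteome profiling in HeLa cells. Cells were treated with 100 µM lipoamide for 1 h, with or without 1 mM arsenate for a further 1 h, then heated to ten temperatures (37-66.3 °C), and soluble protein was quantified by TMT mass spectrometry relative to 0.1% DMSO controls. The thermal stability score (sum of log2 fold changes minus the abundance score) was transformed to a z-score; mean of n = 3 experiments.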

[1] = arsenate co-treatment: 1 mM arsenate 1 h
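Note: each temperature applied for 3 min, abundance score taken as mean log2 fold change at the two lowest temperatures, z-score obtained by mean subtraction and division by SD.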

Chain of UniProt Q8N766 (Q8N766 whole entry): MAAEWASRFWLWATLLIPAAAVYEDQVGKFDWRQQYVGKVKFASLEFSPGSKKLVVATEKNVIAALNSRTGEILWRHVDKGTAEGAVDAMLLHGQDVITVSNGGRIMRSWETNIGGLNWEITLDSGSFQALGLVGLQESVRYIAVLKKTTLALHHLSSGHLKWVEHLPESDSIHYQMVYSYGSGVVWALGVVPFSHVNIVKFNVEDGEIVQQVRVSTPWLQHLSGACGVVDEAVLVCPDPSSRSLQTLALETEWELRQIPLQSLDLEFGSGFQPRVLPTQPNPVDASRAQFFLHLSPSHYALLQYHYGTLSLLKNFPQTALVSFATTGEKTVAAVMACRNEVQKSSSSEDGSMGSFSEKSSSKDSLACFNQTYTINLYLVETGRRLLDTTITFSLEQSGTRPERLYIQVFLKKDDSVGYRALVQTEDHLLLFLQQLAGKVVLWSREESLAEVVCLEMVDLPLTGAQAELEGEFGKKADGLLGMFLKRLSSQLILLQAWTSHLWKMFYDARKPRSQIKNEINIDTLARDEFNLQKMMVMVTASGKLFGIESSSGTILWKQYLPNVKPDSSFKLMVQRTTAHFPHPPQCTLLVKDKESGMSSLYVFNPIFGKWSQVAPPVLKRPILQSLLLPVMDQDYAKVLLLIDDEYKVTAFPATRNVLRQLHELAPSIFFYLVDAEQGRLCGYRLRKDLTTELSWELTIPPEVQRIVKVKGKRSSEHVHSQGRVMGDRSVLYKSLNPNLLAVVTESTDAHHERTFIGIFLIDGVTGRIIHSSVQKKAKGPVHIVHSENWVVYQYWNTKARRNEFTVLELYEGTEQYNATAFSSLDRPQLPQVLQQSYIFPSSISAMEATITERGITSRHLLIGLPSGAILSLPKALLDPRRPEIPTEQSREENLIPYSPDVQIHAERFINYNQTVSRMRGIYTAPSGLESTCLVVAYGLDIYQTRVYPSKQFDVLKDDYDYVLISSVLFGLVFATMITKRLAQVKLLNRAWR
Chain of UniProt Q8NFI3 (Q8NFI3 whole entry): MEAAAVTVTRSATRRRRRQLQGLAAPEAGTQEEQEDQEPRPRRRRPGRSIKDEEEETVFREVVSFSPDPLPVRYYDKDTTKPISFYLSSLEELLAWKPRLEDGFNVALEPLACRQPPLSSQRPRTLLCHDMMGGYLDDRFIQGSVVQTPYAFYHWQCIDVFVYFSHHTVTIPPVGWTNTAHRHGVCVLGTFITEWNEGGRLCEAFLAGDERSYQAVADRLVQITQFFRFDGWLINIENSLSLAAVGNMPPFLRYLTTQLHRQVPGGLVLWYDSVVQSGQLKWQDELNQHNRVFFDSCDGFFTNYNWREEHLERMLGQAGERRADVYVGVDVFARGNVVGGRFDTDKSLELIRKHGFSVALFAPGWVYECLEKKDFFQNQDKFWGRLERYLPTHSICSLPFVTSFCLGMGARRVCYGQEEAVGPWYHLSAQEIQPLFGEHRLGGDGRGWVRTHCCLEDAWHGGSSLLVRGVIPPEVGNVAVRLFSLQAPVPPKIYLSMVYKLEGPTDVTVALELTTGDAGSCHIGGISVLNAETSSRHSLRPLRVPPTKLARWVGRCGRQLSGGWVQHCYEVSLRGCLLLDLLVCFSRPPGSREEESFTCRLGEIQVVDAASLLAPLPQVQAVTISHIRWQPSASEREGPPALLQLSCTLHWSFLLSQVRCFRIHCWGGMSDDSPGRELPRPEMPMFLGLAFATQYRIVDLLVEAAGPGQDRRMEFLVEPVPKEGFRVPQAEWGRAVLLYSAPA
Chain of UniProt Q6PJG2 (Q6PJG2 whole entry): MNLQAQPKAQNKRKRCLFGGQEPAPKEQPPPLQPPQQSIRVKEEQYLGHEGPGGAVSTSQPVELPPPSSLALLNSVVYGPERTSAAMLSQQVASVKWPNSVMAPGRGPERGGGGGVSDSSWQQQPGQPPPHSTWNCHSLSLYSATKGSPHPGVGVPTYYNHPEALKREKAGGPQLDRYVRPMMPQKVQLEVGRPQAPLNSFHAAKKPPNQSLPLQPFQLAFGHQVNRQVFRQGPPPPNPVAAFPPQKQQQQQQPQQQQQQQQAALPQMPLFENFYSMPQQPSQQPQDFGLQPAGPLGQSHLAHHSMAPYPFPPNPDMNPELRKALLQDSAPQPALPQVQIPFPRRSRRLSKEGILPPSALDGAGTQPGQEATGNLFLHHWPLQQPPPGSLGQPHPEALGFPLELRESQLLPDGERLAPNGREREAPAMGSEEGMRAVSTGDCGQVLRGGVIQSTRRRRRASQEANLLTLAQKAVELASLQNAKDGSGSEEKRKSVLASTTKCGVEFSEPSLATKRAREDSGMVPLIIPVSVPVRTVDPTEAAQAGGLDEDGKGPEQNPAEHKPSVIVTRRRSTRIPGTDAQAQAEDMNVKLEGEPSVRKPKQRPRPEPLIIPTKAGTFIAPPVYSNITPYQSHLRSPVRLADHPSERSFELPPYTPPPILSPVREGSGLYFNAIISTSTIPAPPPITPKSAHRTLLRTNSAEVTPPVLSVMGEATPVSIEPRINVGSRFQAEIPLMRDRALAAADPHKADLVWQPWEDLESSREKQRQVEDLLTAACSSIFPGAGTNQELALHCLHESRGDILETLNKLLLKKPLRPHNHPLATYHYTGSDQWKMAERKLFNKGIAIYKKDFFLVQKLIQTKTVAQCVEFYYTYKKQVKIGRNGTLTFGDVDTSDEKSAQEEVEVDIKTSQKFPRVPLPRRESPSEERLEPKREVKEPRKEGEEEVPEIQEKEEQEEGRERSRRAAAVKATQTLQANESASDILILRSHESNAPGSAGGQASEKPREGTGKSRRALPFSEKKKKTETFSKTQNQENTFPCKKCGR
Chain of UniProt P13929 (P13929 whole entry): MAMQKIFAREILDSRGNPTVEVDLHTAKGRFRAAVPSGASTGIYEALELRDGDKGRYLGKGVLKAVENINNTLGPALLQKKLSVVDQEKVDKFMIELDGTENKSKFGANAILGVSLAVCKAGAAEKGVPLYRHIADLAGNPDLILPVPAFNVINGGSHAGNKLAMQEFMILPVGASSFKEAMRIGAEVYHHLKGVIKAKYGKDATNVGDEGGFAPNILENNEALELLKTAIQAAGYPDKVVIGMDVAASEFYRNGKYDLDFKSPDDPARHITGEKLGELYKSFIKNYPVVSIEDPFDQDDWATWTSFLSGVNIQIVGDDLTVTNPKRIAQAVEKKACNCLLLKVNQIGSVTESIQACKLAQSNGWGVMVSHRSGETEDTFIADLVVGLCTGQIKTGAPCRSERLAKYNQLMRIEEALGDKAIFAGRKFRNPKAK
Chain of UniProt Q5NDL2 (Q5NDL2 whole entry): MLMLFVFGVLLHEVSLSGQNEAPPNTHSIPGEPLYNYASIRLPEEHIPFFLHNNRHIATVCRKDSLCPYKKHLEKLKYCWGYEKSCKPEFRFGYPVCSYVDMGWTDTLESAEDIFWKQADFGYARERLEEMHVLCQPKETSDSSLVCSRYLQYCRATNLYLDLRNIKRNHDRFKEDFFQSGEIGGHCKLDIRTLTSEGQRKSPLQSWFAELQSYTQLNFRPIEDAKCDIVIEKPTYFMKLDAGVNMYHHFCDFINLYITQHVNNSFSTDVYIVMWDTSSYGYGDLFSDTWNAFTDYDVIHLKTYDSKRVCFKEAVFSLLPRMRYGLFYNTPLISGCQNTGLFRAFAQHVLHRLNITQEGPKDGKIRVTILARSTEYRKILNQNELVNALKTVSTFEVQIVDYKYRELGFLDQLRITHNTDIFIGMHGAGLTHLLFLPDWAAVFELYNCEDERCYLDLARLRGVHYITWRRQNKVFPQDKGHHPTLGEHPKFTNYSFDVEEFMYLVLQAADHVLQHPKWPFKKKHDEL
Chain of UniProt P54756 (P54756 whole entry): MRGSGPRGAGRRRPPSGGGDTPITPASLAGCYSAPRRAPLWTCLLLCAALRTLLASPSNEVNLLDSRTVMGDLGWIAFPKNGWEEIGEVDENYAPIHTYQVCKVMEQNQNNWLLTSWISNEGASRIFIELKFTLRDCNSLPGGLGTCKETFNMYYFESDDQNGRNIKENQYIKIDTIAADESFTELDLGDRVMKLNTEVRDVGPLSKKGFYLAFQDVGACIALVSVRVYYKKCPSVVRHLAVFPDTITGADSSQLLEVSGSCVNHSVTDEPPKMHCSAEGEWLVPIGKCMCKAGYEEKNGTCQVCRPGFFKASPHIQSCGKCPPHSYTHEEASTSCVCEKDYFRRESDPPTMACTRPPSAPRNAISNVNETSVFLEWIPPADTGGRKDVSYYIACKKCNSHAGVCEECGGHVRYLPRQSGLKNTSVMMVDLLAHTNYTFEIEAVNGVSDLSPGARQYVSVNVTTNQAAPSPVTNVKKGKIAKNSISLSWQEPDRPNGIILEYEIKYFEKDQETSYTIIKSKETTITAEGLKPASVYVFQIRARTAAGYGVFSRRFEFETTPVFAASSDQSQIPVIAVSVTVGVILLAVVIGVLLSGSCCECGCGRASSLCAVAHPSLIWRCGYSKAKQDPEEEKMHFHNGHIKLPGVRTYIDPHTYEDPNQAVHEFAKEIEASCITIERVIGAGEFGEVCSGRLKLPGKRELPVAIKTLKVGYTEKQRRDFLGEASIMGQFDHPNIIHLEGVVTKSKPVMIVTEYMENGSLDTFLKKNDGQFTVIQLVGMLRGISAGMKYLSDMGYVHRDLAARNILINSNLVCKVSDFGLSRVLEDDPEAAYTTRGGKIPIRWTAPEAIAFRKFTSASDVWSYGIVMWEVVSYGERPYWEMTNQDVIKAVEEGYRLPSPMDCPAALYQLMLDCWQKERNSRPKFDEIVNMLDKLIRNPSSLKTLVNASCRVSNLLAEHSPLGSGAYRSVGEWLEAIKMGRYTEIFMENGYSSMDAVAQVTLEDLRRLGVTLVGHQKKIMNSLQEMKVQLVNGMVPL

Target | thermal stability z-score (potassium arsenate) | thermal stability z-score (lipoamide; [1]) | thermal stability z-score (lipoamide; arsenate co-treatment: none)
EIF4G1 (UniProt Q04637) | -0.0263 | -0.164 | -0.0562
EIF4G2 (UniProt P78344) | 0.233 | -0.0525 | 0.548
EIF4G3 (UniProt O43432) | 0.0581 | -0.341 | 0.15
EIF4H (UniProt Q15056) | 0.688 | 0.493 | 0.714
EIF5 (UniProt P55010) | -1.08 | 0.0938 | 0.375
EIF5A (UniProt P63241) | -0.005 | -0.138 | 0.0123
EIF5B (UniProt O60841) | 1.42 | -0.519 | -0.31
EIF6 (UniProt P56537) | -2.24 | -0.689 | -0.681
ELAC2 (UniProt Q9BQ52) | -0.274 | -0.243 | -0.21
ELAVL1 (UniProt Q15717) | -0.765 | -0.0114 | 0.173
ELAVL2 (UniProt Q12926) | -0.564 | -0.19 | -0.197
ELF1 (UniProt P32519) | -0.287 | -0.422 | -0.185
ELMO2 (UniProt Q96JJ3) | 0.457 | -0.114 | 0.245
ELMOD2 (UniProt Q8IZ81) | 0.198 | -0.403 | -0.238
ELMSAN1 (UniProt Q6PJG2) | -0.16 | 0.273 | 0.0593
ELOVL1 (UniProt Q9BW60) | 0.652 | -0.883 | -0.778
ELOVL5 (UniProt Q9NYP7) | 0.0723 | -0.00466 | -0.551
ELP2 (UniProt Q6IA86) | -0.24 | 0.0198 | -0.186
ELP3 (UniProt Q9H9T3) | -0.259 | 0.0482 | 0.104
ELP4 (UniProt Q96EB1) | 0.742 | -0.492 | 0.609
ELP5 (UniProt Q8TE02) | 0.489 | -0.313 | -0.364
ELP6 (UniProt Q0PNE2) | 0.998 | 0.56 | -0.141
EMC1 (UniProt Q8N766) | 0.695 | -2.01 | -1.43
EMC2 (UniProt Q15006) | 0.472 | -0.278 | -0.164
EMC3 (UniProt Q9P0I2) | -0.133 | -0.0707 | -0.245
EMC4 (UniProt Q5J8M3) | 0.26 | -0.342 | 0.294
EMC7 (UniProt Q9NPA0) | -0.101 | -0.402 | -0.134
EMC8 (UniProt O43402) | 0.348 | 0.0729 | 0.209

Target | thermal stability z-score (potassium arsenate) | thermal stability z-score (lipoamide; [1]) | thermal stability z-score (lipoamide; arsenate co-treatment: none)
EMC10 (UniProt Q5UCC4) | 0.0739 | -0.0818 | -0.577
EMD (UniProt P50402) | -0.405 | -0.75 | -0.633
EMG1 (UniProt Q92979) | -0.383 | -0.357 | -0.428
EML1 (UniProt O00423) | -0.156 | 0.345 | 0.15
EML2 (UniProt O95834) | -0.718 | 1.13 | 0.223
EML3 (UniProt Q32P44) | -0.524 | 0.0786 | -0.13
EML4 (UniProt Q9HC35) | 1.33 | -0.51 | -0.693
ENAH (UniProt Q8N8S7) | -0.515 | -0.14 | 0.013
ENDOD1 (UniProt O94919) | 0.443 | -1.14 | -0.77
ENDOG (UniProt Q14249) | -0.245 | -1.25 | -0.145
ENG (UniProt P17813) | 0.478 | -0.721 | -0.506
ENGASE (UniProt Q8NFI3) | -0.36 | 0.198 | 0.101
ENO1 (UniProt P06733) | -0.0281 | 0.588 | 0.278
ENO3 (UniProt P13929) | -0.432 | 0.308 | -0.4
ENOPH1 (UniProt Q9UHY7) | -0.296 | 0.0377 | -0.118
ENOSF1 (UniProt Q7L5Y1) | -1.01 | -0.0529 | 0.0795
ENPEP (UniProt Q07075) | -0.0304 | 0.281 | 0.407
ENSA (UniProt O43768) | 0.481 | 0.841 | 0.567
ENTHD2 (UniProt Q96N21) | -0.479 | -0.00439 | -0.0659
ENY2 (UniProt Q9NPA8) | 0.181 | 0.894 | 0.42
EOGT (UniProt Q5NDL2) | 0.0751 | -1.18 | -0.664
EP300 (UniProt Q09472) | -0.866 | -0.212 | 0.127
EPB41 (UniProt P11171) | -0.0292 | -0.424 | -0.262
EPB41L1 (UniProt Q9H4G0) | 0.139 | -0.509 | -0.127
EPB41L2 (UniProt O43491) | 0.128 | -0.283 | -0.0411
EPHA2 (UniProt P29317) | -0.211 | -0.528 | -0.029
EPHA5 (UniProt P54756) | 0.746 | 0.8 | 0.338
